Experimental data: US9902702B2, “Spirocycloheptanes as inhibitors of rock” (BRISTOL-MYERS SQUIBB COMPANY, priority 2014, dated 2018)

Molecular target: ROCK2 (Homo sapiens, UniProt O75116)
Test: ROCK assay: phosphorylation of FITC peptide substrate, LABCHIP 3000 mobility shift
Assay type: biochemical
Conditions: 5 μM ATP, 1.5 μM peptide substrate; read-out: ROCK2 Activity (ROCK IC50 range)
Outline: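 Rho kinase variant phosphorylates 1.5 μM FITC-AHA-AKRRRLSSLRA-OH with 5 μM ATP in 20 mM HEPES pH 7.5, 20 mM MgCl2, 0.015% Brij-35, 4 mM DTT, DMSO <2%. EDTA stops the reaction, and phospho and non-phospho peptides are resolved by LabChip 3000 mobility shift. IC50 from dose-response curve fit.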

Sequence of ROCK2 (O75116 whole entry, species assumed): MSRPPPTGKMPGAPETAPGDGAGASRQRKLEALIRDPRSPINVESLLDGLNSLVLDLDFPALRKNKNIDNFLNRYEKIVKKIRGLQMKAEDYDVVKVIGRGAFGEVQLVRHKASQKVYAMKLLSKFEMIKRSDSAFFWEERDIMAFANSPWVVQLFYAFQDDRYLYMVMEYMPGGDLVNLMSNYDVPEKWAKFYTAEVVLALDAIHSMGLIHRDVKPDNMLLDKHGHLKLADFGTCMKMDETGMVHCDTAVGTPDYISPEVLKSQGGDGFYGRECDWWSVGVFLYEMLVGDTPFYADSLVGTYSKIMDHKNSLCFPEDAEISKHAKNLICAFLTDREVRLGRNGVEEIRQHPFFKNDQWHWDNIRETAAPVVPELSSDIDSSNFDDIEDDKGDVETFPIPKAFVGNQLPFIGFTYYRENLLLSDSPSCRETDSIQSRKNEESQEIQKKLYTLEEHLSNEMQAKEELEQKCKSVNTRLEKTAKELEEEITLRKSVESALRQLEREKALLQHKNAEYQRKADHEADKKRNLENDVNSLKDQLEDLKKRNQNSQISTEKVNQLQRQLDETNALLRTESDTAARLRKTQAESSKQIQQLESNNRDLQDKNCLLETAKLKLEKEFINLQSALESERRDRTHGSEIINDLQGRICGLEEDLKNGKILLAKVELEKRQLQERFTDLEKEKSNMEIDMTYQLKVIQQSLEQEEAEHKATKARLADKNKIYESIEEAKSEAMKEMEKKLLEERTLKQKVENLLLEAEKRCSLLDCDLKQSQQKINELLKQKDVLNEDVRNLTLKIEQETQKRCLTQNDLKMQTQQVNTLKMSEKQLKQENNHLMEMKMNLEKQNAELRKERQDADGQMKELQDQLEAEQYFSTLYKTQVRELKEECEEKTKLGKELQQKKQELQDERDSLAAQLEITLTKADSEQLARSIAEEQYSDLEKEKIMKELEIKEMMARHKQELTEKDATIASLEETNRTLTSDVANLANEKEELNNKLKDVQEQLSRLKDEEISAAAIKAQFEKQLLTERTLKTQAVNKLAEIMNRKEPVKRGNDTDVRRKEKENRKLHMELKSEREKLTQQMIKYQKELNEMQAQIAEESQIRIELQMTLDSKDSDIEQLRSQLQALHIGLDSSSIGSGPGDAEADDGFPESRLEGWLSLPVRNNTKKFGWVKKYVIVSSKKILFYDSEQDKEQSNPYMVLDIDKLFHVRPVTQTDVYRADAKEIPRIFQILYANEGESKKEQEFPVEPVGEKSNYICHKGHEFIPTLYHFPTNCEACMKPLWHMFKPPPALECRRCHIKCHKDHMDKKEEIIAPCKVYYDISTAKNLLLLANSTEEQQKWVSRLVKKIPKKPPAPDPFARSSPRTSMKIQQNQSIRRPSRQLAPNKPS

Structure (SMILES) | IC50 [nM]
CC(C)(C)n1cc(-c2ccc3c(c2)CCN3C(=O)NC2CC3(C2)CC(c2n[nH]c(=O)c4ccccc24)C3)cn1 [Example 242, 5-(1-(tert-butyl)-1H-pyrazol-4-yl)-N-((aR)-6-(4-oxo-3,4-dihydrophthalazin-1-yl)spiro[3.3]heptan-2-yl)indoline-1-carboxamide] | 2.01 to 5
O=C(NC1CC2(C1)CC(c1n[nH]c(=O)c3ccccc13)C2)N1CCc2cc(-c3cnn(C4CCOC4)c3)ccc21 [Example 243, N-((aR)-6-(4-oxo-3,4-dihydrophthalazin-1-yl)spiro[3.3]heptan-2-yl)-5-(1-(tetrahydrofuran-3-yl)-1H-pyrazol-4-yl)indoline-1-carboxamide] | 2.01 to 5
CC(C)n1cc(-c2ccc3c(c2)CCN3C(=O)NC2CC3(C2)CC(c2n[nH]c(=O)c4ccccc24)C3)c(C(F)(F)F)n1 [Example 244, 5-(1-isopropyl-3-(trifluoromethyl)-1H-pyrazol-4-yl)-N-((aR)-6-(4-oxo-3,4-dihydrophthalazin-1-yl)spiro[3.3]heptan-2-yl)indoline-1-carboxamide] | 5.1 to 15
O=C(NC1CC2(C1)CC(c1n[nH]c(=O)c3ccccc13)C2)N1CCc2cc(CCC(F)(F)F)ccc21 [Example 245, N-((aR)-6-(4-oxo-3,4-dihydrophthalazin-1-yl)spiro[3.3]heptan-2-yl)-5-(3,3,3-trifluoropropyl)indoline-1-carboxamide] | 5.1 to 15
Cc1nn(C)c(C)c1-c1ccc2c(c1)CN(C(=O)NC1CC3(C1)CC(c1n[nH]c(=O)c4ccccc14)C3)C2 [Example 246, N-((aR)-6-(4-oxo-3,4-dihydrophthalazin-1-yl)spiro[3.3]heptan-2-yl)-5-(1,3,5-trimethyl-1H-pyrazol-4-yl)isoindoline-2-carboxamide] | 2.01 to 5
O=C(NC1CC2(C1)CC(c1n[nH]c(=O)c3ccccc13)C2)N1Cc2ccc(-c3cnn(C4CC4)c3)cc2C1 [Example 247, 5-(1-cyclopropyl-1H-pyrazol-4-yl)-N-((aR)-6-(4-oxo-3,4-dihydrophthalazin-1-yl)spiro[3.3]heptan-2-yl)isoindoline-2-carboxamide] | 2.01 to 5
Cn1cc(-c2ccc3c(c2)CN(C(=O)NC2CC4(C2)CC(c2n[nH]c(=O)c5ccccc25)C4)C3)c(C(F)(F)F)n1 [Example 248, 5-(1-methyl-3-(trifluoromethyl)-1H-pyrazol-4-yl)-N-((aR)-6-(4-oxo-3,4-dihydrophthalazin-1-yl)spiro[3.3]heptan-2-yl)isoindoline-2-carboxamide] | 5.1 to 15
CC(C)n1cc(-c2ccc3c(c2)CN(C(=O)NC2CC4(C2)CC(c2n[nH]c(=O)c5ccccc25)C4)C3)c(C(F)(F)F)n1 [Example 249, 5-(1-isopropyl-3-(trifluoromethyl)-1H-pyrazol-4-yl)-N-((aR)-6-(4-oxo-3,4-dihydrophthalazin-1-yl)spiro[3.3]heptan-2-yl)isoindoline-2-carboxamide] | 5.1 to 15
Cn1cc(-c2ccc3c(c2)CN(C(=O)NC2CC4(C2)CC(c2n[nH]c(=O)c5ccccc25)C4)C3)cn1 [Example 250, 5-(1-methyl-1H-pyrazol-4-yl)-N-((aR)-6-(4-oxo-3,4-dihydrophthalazin-1-yl)spiro[3.3]heptan-2-yl)isoindoline-2-carboxamide] | 5.1 to 15
O=C(NC1CC2(C1)CC(c1n[nH]c(=O)c3ccccc13)C2)N1Cc2ccc(-c3cnn(C4CCOCC4)c3)cc2C1 [Example 251, N-((aR)-6-(4-oxo-3,4-dihydrophthalazin-1-yl)spiro[3.3]heptan-2-yl)-5-(1-(tetrahydro-2H-pyran-4-yl)-1H-pyrazol-4-yl)isoindoline-2-carboxamide] | 5.1 to 15
CC(C)(C)n1cc(-c2ccc3c(c2)CN(C(=O)NC2CC4(C2)CC(c2n[nH]c(=O)c5ccccc25)C4)C3)cn1 [Example 252, 5-(1-(tert-butyl)-1H-pyrazol-4-yl)-N-((aR)-6-(4-oxo-3,4-dihydrophthalazin-1-yl)spiro[3.3]heptan-2-yl)isoindoline-2-carboxamide] | 5.1 to 15
